Patent US8338565B2, “Macrocyclic compounds for inhibition of tumor necrosis factor alpha” (Ensemble Therapeutics Corporation, priority 2008, dated 2012)
Like-named read-outs stand apart in the source and are kept apart here.

Assays:
[1] = target: T1, TNFα / TNFα receptor (TNFα R1/Fc) (Homo sapiens, UniProt P01375); assay: Inhibition of binding of TNFα to the TNFα receptor (plate ELISA competition); details: Table 2
T1 construct: purchased R&D Systems
Summary of the method: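 Compound dilutions were preincubated 30 min at RT with 8.33 nM TNFα R1/Fc in PBST with 2% DMSO, then added to wells coated with 15 nM TNFα for 30 min. Bound receptor was detected with HRP anti-human Fc and TMB, read as A450.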

[2] = tested on: TNF-α (degradation of IkB in HeLa cells or A431 cells); assay: Human cell-based assay: inhibition of TNF-α induced degradation of IkB; details: for inhibition at 5 µM: read-out: Inhibition at Various Compound Concentrations, 5 μM; for inhibition at 10 µM: read-out: Inhibition at Various Compound Concentrations, 10 μM
[3] = tested on: rat paw edema model; assay: Rat paw edema model (carrageenan), anti-inflammatory activity; type: in vivo, Sprague-Dawley (SD) rats
Protocol: Compounds 3, 4, 10 and 202 were tested in a rat paw edema model to determine anti-inflammatory activity. Seven groups (one for Vehicle A [15 mL PEG400, 3 mL Graves Grain alcohol (190 proof), 1.8 mL dimethylacetamide and 10.2 mL deionized water] alone as a negative control, one for Vehicle B [0.1M NaHCO3] alone as a negative control, one for each of the four test compounds dissolved in Vehicle A, and one for indomethacin dissolved in Vehicle B as a positive control), each group containing six Sprague-Dawley (SD) rats (180-200 g) randomized by weight. Initial paw volumes were measured by placing the right hind limb of the rat up to the top of the hock in a beaker of water sitting on a scale that had been tared to zero and recording the readout.
Rats were pre-treated with either i) one of the test compounds, or ii) a positive or negative control. Vehicle A alone and test compound dissolved in Vehicle A (Compound 3-1.0 mg/kg; Compound 4-0.4 mg/kg; Compound 10-0.5 mg/kg; Compound 202-0.3 mg/kg) were administered by intravenous injection. Vehicle B alone and indomethacin (5 mg/kg in 0.1M NaHCO3) was administered by intraperitoneal injection. Thirty minutes after this pretreatment, rats were anesthetized and injected with 0.1 mL of carrageenan (10 mg/mL in water) in the subplantar region of the right hind foot using a ½ inch 26 gauge needle attached to a 1 cc syringe.
At 2, 4 and 6 hours post-carrageenan injection, the right hind foot of each rat was measured for paw volume as described above.
We next investigated the effect of varying intravenous doses of Compound 202 (0.05, 0.10, 0.30, and 1.00 mg/kg) in the same model using the same protocol (6 rats per group). […] We also investigated the affect of oral dosing (10 mg/kg) of Compound 202 in the same model. For oral dosing, a 2.5 mg/mL suspension of Compound 202 was prepared in Vehicle A. Rats were orally administered 4 mL/kg of that suspension.

[4] = tested on: rat paw edema model; assay: as above; type: in vivo, Sprague-Dawley (SD) rats; details: Table 8; 3 mg/kg PO; 4 h post-carrageenan
[5] = Table 5, 1 mg/kg IV, 2 h post-carrageenan
[6] = Table 5, 1 mg/kg IV, 4 h post-carrageenan
[7] = Table 5, 1 mg/kg IV, 6 h post-carrageenan

T1 sequence (P01375 77-233 limits assumed, species assumed): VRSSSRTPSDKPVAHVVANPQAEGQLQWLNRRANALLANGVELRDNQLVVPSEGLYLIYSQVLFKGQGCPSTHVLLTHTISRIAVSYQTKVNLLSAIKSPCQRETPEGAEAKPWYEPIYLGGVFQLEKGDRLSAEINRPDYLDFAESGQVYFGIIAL

IC50 ([1]; read-out: Activity (IC50, inhibition of TNFα binding to TNFα R1/Fc)) [µM]	SMILES	inhibition at 5 µM ([2]; 5 μM compound, HeLa or A431 cells) [%]	inhibition at 10 µM ([2]; 10 μM compound, HeLa or A431 cells) [%]	Change in Paw Volume [3, 5] [mL]	Change in Paw Volume [3, 6] [mL]	Change in Paw Volume [3, 7] [mL]	IC50 ([1]; Activity (IC50, inhibition of TNFα binding to TNFα R1/Fc)) [µM]	inhibition at 5 µM [2] [%]	inhibition at 10 µM [2] [%]	Change in Paw Volume ([3]; Table 8, 3 mg/kg PO, 2 h post-carrageenan) [mL]	Change in Paw Volume ([3]; Table 8, 3 mg/kg PO, 6 h post-carrageenan) [mL]	Change in Paw Volume [4] [mL]
< 10	O=C(O)[C@H](Cc1ccccc1)NC(=O)[C@@H]1Cc2ccc(cc2)NC(=O)[C@H](O)[C@@H](O)C(=O)N[C@H](Cc2cccs2)C(=O)N[C@@H](Cc2ccc(-c3ccncc3)cc2)C(=O)N[C@H](Cc2ccccc2)C(=O)N1 [Compound 442]	10 to 50	10 to 50	0.86 ± 0.15	1.08 ± 0.16	1.01 ± 0.14						
	O=C1COc2ccc(cc2)C[C@@H](C(=O)NCS(=O)(=O)O)NC(=O)[C@H](CCc2ccccc2)NC(=O)[C@@H](Cc2ccc(-c3ccccc3)cc2)NC(=O)[C@H](Cc2cccs2)N1 [Compound 482]			0.73 ± 0.19	0.99 ± 0.34	0.86 ± 0.27	< 10	10 to 50	10 to 50	1.13 ± 0.15	1.14 ± 0.10	1.18 ± 0.10
